Read-outs that look alike come from different tables or passages of the source.
Tests used:
human mGlu2 receptor = biological target: T1, human mGlu2 receptor (Homo sapiens, UniProt Q14416); test: [35S]GTPγS binding assay, mGluR2 PAM; type: biochemical; conditions: for EC50 / GTPγS-hmGluR2 PAM pEC50: in presence of EC20 glutamate; for EC50: read-out: GTPγS-hmGluR2 PAM pEC50 (converted)
T1 construct: expressed in transfected cells; host or cells: CHO cells
Method: The [^35S]GTPγS binding assay is a functional membrane-based assay used to study G-protein coupled receptor (GPCR) function whereby incorporation of a non-hydrolysable form of GTP, [^35S]GTPγS (guanosine 5′-triphosphate, labelled with […] ^35S), is measured.
Cells were then collected by scraping in PBS and cell suspension was centrifuged (10 min at 4000 RPM in benchtop centrifuge). Supernatant was discarded and pellet gently resuspended in 50 mM Tris-HCl, pH 7.4 by mixing with a vortex and pipetting up and down. The suspension was centrifuged at 16,000 RPM (Sorvall RC-5C plus rotor SS-34) for 10 minutes and the supernatant discarded. The pellet was homogenized in 5 mM Tris-HCl, pH 7.4 using an ultra-turrax homogenizer and centrifuged again (18,000 RPM, 20 min, 4° C.). The final pellet was resuspended in 50 mM Tris-HCl, pH 7.4 and stored at-80° C. in appropriate aliquots before use. Protein concentration was determined by the Bradford method (Bio-Rad, USA) with bovine serum albumin as standard.
Measurement of mGluR2 positive allosteric modulatory activity of test compounds was performed as follows. Test compounds and glutamate were diluted in assay buffer containing 10 mM HEPES acid, 10 mM HEPES salt, pH 7.4, 100 mM NaCl, 3 mM MgCl2 and 10 μM GDP. Human mGlu2 receptor-containing membranes were thawed on ice and diluted in assay buffer supplemented with 14 μg/ml saponin. Membranes were pre-incubated with compound alone or together with a predefined (˜EC20) concentration of glutamate (PAM assay) for 30 min at 30° C. After addition of [^35S] GTPγS (f.c. 0.1 nM), assay mixtures were shaken briefly and further incubated to allow [^35S] GTPγS incorporation on activation (30 minutes, 30° C.). Final assay mixtures contained 7 μg of membrane protein in 10 mM HEPES acid, 10 mM HEPES salt, pH 7.4, 100 mM NaCl, 3 mM MgCl2, 10 µM GDP and 2 μg/ml saponin. Total reaction volume was 200 μl. Reactions were terminated by rapid filtration through Unifilter-96 GF/B plates (Perkin Elmer, Massachusetts, USA) using a 96-well filtermate universal harvester. Filters were washed 6 times with ice-cold 10 mM NaH2PO4/10 mM Na2HPO4, pH 7.4. Filters were then air-dried, and 40 μl of liquid scintillation cocktail (Microscint-O) was added to each well. Membrane-bound radioactivity was counted in a Microplate Scintillation and Luminescence Counter from Perkin Elmer.
The concentration-response curves of representative compounds of the present invention-obtained in the presence of EC20 of mGluR2 agonist glutamate to determine positive allosteric modulation (PAM)—were generated using the Lexis software interface (developed at J&J). Data were calculated as % of the control glutamate response, defined as the maximal response that is generated upon addition of glutamate alone. Sigmoid concentration-response curves plotting these percentages versus the log concentration of the test compound were analyzed using non-linear regression analysis. The concentration producing half-maximal effect is then calculated as EC50. The pEC50 values below were calculated as the −log EC50, when the EC50 is expressed in M. Emax is defined as relative maximal effect (i.e. maximal % effect relative to the control glutamate response).

[1] = system: 6 Hz (44 mA) psychomotor seizures; test: 6 Hz psychomotor seizure test, 44 mA (alone, combination with LEV, isobolographic study); type: in vivo, mice; conditions: Mus musculus, 6 Hz (44 mA); [CAS 1092453-15-0] 20 mg/kg, alone; read-out: # protected/# tested (converted)
Method: Test compounds were administered using an optimal fluid volume to body fluid ratio. Test compounds were administered to mice in a volume of 0.01 mL/g of body weight (White H. S., et al., General Principles: Experimental selection, quantification, and evaluation of antiepileptic drugs, in Antiepileptic Drugs, Fourth Edition, […], and B. S. Meldrum, Editors. 1995, Raven Press, Ltd.: New York, pp. 99-110). For subcutaneous (s.c.) administration, the test compounds were administered into a loose fold of skin along the back of the animal except compound 6-b, which was administered orally (p.o). […] The animals were maintained on an adequate diet (Prolab RMH 3000) and allowed free access to food and water, except during the short time they were removed from their cage for testing. Animals newly received in the laboratory were allowed sufficient time to correct for possible food and water restriction incurred during transit before being employed in testing. All mice were housed in plastic cages in specially constructed rooms with controlled humidity, exchange of air and controlled lighting (12 hours on-12 hours off). The animals were housed, fed, and handled in a manner consistent with the recommendations in the National Council Publication, “Guide for the Care and Use of Laboratory Animals”. In the determination of an ED50 or TD50 for each test compound, the first dose administered is usually the same dose as that used in a successful TPE determination. […] Third and fourth doses were selected to produce an evenly spaced dose response line. […] The 6 Hz seizure test is used as a model of pharmacoresistant limbic seizures. […] Focal seizures were induced in mice via corneal stimulation (6 Hz, 0.2 msec rectangular pulse, 3 sec duration; Barton et al. 2001). Mice were tested at either 32 mA or 44 mA. […] The seizures that arise from corneal stimulation in this assay are characterized by a minimal clonic phase followed by stereotyped automatistic behaviors including stun, forelimb clonus, twitching of the vibrissae, and Straub-tail. Animals not displaying these behaviors were considered protected. […] In addition to recording the efficacy and toxicity data for these compounds alone or in combination, both plasma and brain samples were collected from each of the groups for pharmacokinetic/pharmacokinetic analysis. No pharmacokinetic interaction was observed based on compound levels in the plasma and brain samples (data not shown). Isobolographic studies were conducted for the combined administration of Co. […] Studies were conducted according to previously described methods (Madsen et al. 2011). Initial ED50 values were determined for both Co. […] Co. […] Doses used were proportional to calculated ED50 values. […] Experimental treatment doses (see Table 4) were based on theoretical values and adjusted according to observed effects. Experimentally determined ED50 (+SEM) values for each fixed dose-ratio combination were compared to the theoretical values (t-test) for statistical purposes. […] Subsequently, the experimental combined doses were determined for the same paradigms in the 6 Hz seizure test (Table 4 below).

[2] = Minimal motor impairment (rotarod); type: in vivo, mice; conditions: [CAS 1092453-15-0] 20 mg/kg, alone
Method: Acute MMI was assessed by a combination of direct observations of the animal for overt symptoms of the animal's neurological or muscular function. In mice, the rotarod procedure was used to disclose minimal muscular or neurological impairment. When a mouse is placed on a rod that rotates at a speed of 6 rpm, the animal can maintain its equilibrium for long periods of time. The animal was considered toxic if it fell off this rotating rod three times during a 1 min period.
In the determination of an ED50 or TD50 for each test compound, the first dose administered is usually the same dose as that used in a successful TPE determination.
If the initial dose employed was effective or toxic in more than 50% of animals, the next dose would be one-half that of the initial dose; if the initial dose was effective or toxic in less than 50% of animals, the following dose would be twice that of the initial dose. Third and fourth doses were selected to produce an evenly spaced dose response line. There should be a minimum of 4 points either including or lying between 0 and 100%.

[3] = maximal % effect relative to control glutamate response, EC20 glutamate, read-out: GTPγS-hmGluR2 PAM Emax

T1 sequence (Q14416 19-872): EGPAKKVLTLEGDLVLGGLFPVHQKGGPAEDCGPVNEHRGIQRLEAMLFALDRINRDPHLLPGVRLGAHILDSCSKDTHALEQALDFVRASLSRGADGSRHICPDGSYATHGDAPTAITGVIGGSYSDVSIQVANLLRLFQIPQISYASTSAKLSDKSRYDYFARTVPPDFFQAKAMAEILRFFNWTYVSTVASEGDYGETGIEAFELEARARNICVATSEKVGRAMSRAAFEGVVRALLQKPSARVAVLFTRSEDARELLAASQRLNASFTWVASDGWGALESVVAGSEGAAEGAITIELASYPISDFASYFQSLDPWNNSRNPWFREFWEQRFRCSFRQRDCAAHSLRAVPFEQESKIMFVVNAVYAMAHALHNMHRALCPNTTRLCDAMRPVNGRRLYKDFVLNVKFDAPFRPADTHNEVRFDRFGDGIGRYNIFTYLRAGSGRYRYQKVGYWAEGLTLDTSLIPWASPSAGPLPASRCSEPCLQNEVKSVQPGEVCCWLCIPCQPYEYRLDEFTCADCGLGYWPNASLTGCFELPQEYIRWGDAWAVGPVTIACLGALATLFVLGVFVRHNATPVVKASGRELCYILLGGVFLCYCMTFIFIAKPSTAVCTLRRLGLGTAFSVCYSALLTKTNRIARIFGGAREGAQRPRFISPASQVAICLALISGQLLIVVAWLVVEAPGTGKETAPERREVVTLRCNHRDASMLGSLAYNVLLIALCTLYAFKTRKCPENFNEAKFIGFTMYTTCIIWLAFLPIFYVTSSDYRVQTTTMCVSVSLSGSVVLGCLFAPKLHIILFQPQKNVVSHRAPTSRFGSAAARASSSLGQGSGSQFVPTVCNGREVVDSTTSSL

Emax (human mGlu2 receptor; [3]) | EC50 (human mGlu2 receptor) | Structure (SMILES) | also measured
141% |  | C[C@@H](Oc1ccc(F)cc1F)c1ccn2c(CC3CC3)nnc2c1C(F)(F)F [Co. No. 5-b, 3-(Cyclopropylmethyl)-7-[(1R)-1-(2,4-difluorophenoxy)ethyl]-8-(trifluoromethyl)[1,2,4]triazolo[4,3-a]pyridine] | 
212% | 214 nM | O=c1c(Cl)c(N2CCC(c3ccc(N4CCOCC4)cc3)CC2)ccn1CC1CC1 [Co. No. 13-a] | 
258% |  | CC(C)CCn1ccc(N2CCC(c3ccc(F)cc3F)CC2)c(Cl)c1=O [Co. No. 24-a] | GTPγS-hmGluR2 PAM pEC50 (human mGlu2 receptor): 6.91
239% |  | C[C@H](Oc1c(F)cccc1F)c1ccn2c(CC3CC3)nnc2c1C(F)(F)F [Co. No. 11-b, 3-(Cyclopropylmethyl)-7-[(1S)-1-(2,6-difluorophenoxy)ethyl]-8-(trifluoromethyl)[1,2,4]triazolo[4,3-a]pyridine] | 
 |  | CCOCc1nnc2c(C(F)(F)F)c(C(C)Oc3ccc(F)cc3F)ccn12 (single isomer, unassigned) [Co. No. 20-b, 7-[(1*R)-1-(2,4-Difluorophenoxy)ethyl]-3-(ethoxymethyl)-8-(trifluoromethyl)[1,2,4]triazolo[4,3-a]pyridine] | GTPγS-hmGluR2 PAM Emax (human mGlu2 receptor; maximal % effect relative to control glutamate response, EC20 glutamate, listed as 20-b): 332%
362% | 263 nM | CCCCn1ccc(N2CCC3(CC2)COc2ccccc23)c(Cl)c1=O [Co. No. 33-a] | 
207% |  | O=c1c(Cl)c(N2CCC(CF)(c3ccccc3)CC2)ccn1CC1CC1 [Co. No. 21-a] | 
284% | 331 nM | CCCCn1ccc(N2CCC(c3ccc(C(C)(C)O)cc3)CC2)c(Cl)c1=O [Co. No. 27-a] | 
 |  | CCOCc1nnc2c(C(F)(F)F)c(C(C)Oc3ccc(F)cc3F)ccn12 (single isomer, unassigned) [Co. No. 21-b, 7-[(1*S)-1-(2,4-Difluorophenoxy)ethyl]-3-(ethoxymethyl)-8-(trifluoromethyl)[1,2,4]triazolo[4,3-a]pyridine] | GTPγS-hmGluR2 PAM Emax (human mGlu2 receptor; maximal % effect relative to control glutamate response, EC20 glutamate, listed as 21-b): 102%
259% |  | CCCCn1ccc(N2CCC(CO)(c3ccccc3)CC2)c(Cl)c1=O [Co. No. 22-a] | 
 |  | Cc1cc(-c2nc(CN3CCNCC3)no2)cc2c1C(=O)N(Cc1ccc(OC(F)(F)F)cc1)C2 [[CAS 1092453-15-0]] | responders at 20 mg/kg [1]: 0%; Emax (human mGlu2 receptor; GTPγS assay, read-out: Emax): 197%; # rotarod motor impairment/# tested [2]: 0/8
248% | 316 nM | O=c1c(Cl)c(N2CCC(F)(c3ccccc3)CC2)ccn1CCC1CC1 [Co. No. 26-a] | 
281% |  | Cc1cc(F)ccc1O[C@@H](C)c1ccn2c(CC3CC3)nnc2c1C(F)(F)F [Co. No. 14-b, 3-(Cyclopropylmethyl)-7-[(1S)-1-(4-fluoro-2-methylphenoxy)ethyl]-8-(trifluoromethyl)[1,2,4]triazolo[4,3-a]pyridine] | 
253% |  | O=c1c(Cl)c(N2CCC(c3ccccc3Cl)CC2)ccn1CC1CC1 [Co. No. 15-a] | GTPγS-hmGluR2 PAM pEC50 (human mGlu2 receptor): 7
231% | 550 nM | Fc1ccc(N2CCN(Cc3ccn4c(CC5CC5)nnc4c3Cl)CC2)c(F)c1 [Co. No. 5] | 
261% |  | CC1(C)OC2(CCN(c3ccn4c(CC(F)(F)F)nnc4c3Cl)CC2)c2ccccc21 [Co. No. 12] | 
178% |  | COc1cc(F)ccc1O[C@@H](C)c1ccn2c(CC3CC3)nnc2c1C(F)(F)F [Co. No. 12-b, 3-(Cyclopropylmethyl)-7-[(1S)-1-(4-fluoro-2-methoxyphenoxy)ethyl]-8-(trifluoromethyl)[1,2,4]triazolo[4,3-a]pyridine] | 
 | 89.1 nM | CCCc1nnc2c(C(F)(F)F)c(C(C)Oc3ccc(F)cc3F)ccn12 (single isomer, unassigned) [Co. No. 31-b] | GTPγS-hmGluR2 PAM Emax (human mGlu2 receptor; maximal % effect relative to control glutamate response, EC20 glutamate, listed as 31-b): 251%
259% |  | O=c1c(Cl)c(N2CCC(c3ccc(F)cc3F)CC2)ccn1CC1CC1 [Co. No. 14-a] | GTPγS-hmGluR2 PAM pEC50 (human mGlu2 receptor): 6.92
242% |  | O=c1c(Cl)c(N2CCC(c3ccccc3F)CC2)ccn1CC1CC1 [Co. No. 12-a] | GTPγS-hmGluR2 PAM pEC50 (human mGlu2 receptor): 7.03

Reference: patent publication US20250288584A1, “COMBINATIONS COMPRISING POSITIVE ALLOSTERIC MODULATORS OR ORTHOSTERIC AGONISTS OF METABOTROPIC GLUTAMATERGIC RECEPTOR SUBTYPE 2 AND THEIR USE” (JANSSEN PHARMACEUTICA NV, priority 2014, published 2025)
